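Interpolation was linear, between the two tested concentrations surrounding the appropriate level; five concentrations were tested over 48 hours in 96-well plates. TGI is the concentration that stops growth completely.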
Columns and labels:
Test in all cases: inhibition of tumour cell growth, NCI panel, 48 h
ACHN renal = tested on: ACHN renal
OVCAR-5 ovarian = tested on: OVCAR-5 ovarian
M14 melanoma = tested on: M14 melanoma
BT-549 breast = tested on: BT-549 breast
LOX IMVI melanoma = tested on: LOX IMVI melanoma
SNB-19 CNS = tested on: SNB-19 CNS
OVCAR-4 ovarian = tested on: OVCAR-4 ovarian
K-562 leukemia = tested on: K-562 leukemia
NCI-H522 lung = tested on: NCI-H522 lung
SF-295 CNS = tested on: SF-295 CNS

| Structure (SMILES) | TGI (ACHN renal) [µM] | TGI (OVCAR-5 ovarian) [µM] | TGI (M14 melanoma) [µM] | TGI (BT-549 breast) [µM] | TGI (LOX IMVI melanoma) [µM] | TGI (SNB-19 CNS) [µM] | TGI (OVCAR-4 ovarian) [µM] | TGI (K-562 leukemia) [µM] | TGI (NCI-H522 lung) [µM] | TGI (SF-295 CNS) [µM] |
| --- | --- | --- | --- | --- | --- | --- | --- | --- | --- | --- |
| CC(C)(C)OC(=O)N[C@@H](Cc1ccccc1)C(=O)N1CC[C@@H](C(=O)N2[C@H]3CC4CC[C@@]3(CS2(=O)=O)C4(C)C)N1 | > 100 | > 100 | > 100 | > 100 | > 100 | > 100 | > 100 | > 100 |  |  |
| CN(NC(=O)/C(=C/C=C/c1ccccc1)NC(=O)c1ccccc1)C1=C(Cl)C(=O)[N+](c2ccccc2)=CC1 | 81 | > 100 | 40.2 | 49.6 | 32.3 | 80.2 | 64 | 49.9 | 61.5 | 81.5 |
| O=C(n1c(=O)n(-c2ccc([N+](=O)[O-])cc2)c(=O)n1C(=O)C(Cl)(Cl)Cl)C(Cl)(Cl)Cl | > 100 | > 100 | > 100 | > 100 | > 100 | > 100 | > 100 |  | > 100 | > 100 |
| C[N+](C)(C)c1nc(N)nc2c1ncn2C1OC(CO)C(O)C1O (configuration not stated) | > 100 | > 100 | > 100 | > 100 | > 100 | > 100 | > 100 | > 100 | > 100 |  |
| CNc1ccc([N+](=O)[O-])cc1C(=O)N1CCC[C@H]1CO | > 100 | > 100 | > 100 | > 100 | > 100 | > 100 | > 100 | > 100 | > 100 | > 100 |
| Cc1cccc(-c2cc(=O)c3c(C)ccnc3[nH]2)c1 | > 100 | > 100 | > 100 | > 100 | > 100 |  | > 100 | > 100 | 0.798 |  |
| Cc1ccc(Oc2cc(C)ccc2P(=O)(O)O)cc1 |  |  | > 100 | > 100 | > 100 | > 100 |  | > 100 | > 100 | > 100 |
| Cc1ccc2c(=O)c3c(O)c4c(cc3n(C)c2c1)OC(C)(C)C=C4 | > 10 | > 10 | > 10 | > 10 | > 10 | > 10 | > 10 | > 10 | > 10 | > 10 |
| COC(=O)C1CC(C=O)=C(SC)N1 (configuration not stated) | > 50 | > 50 | > 50 | > 50 |  | > 50 | > 50 | > 50 | > 50 | > 50 |
| CC(C)(CN1CCCCC1)C(=O)CC(SCCS(=O)(=O)O)c1ccc(Cl)c(Cl)c1 (configuration not stated) | 9.03 | 14.6 | 3.8 | 13 |  | 23.1 | 9.38 |  | 5.59 | 15.8 |
| C[C@@H](CC(O)C(O)C(C)(C)O)C1CCC23CC12CCC1[C@@]2(C)CCC(=O)C(C)(C)C2CC(OC2OC(CO)C(O)C(O)C2O)[C@]13C (some centres not stated) | > 10 | > 10 | > 10 | > 10 | > 10 | > 10 | > 10 | > 10 | > 10 | > 10 |
| NC(=O)CN1CCN(c2nc(N3CCCC3)c3nc(Cl)c(NCc4ccccc4)nc3n2)CC1 | 32.2 | 17.9 | 17.5 | 19.5 | 16.5 | 18.9 | 48.2 | 21 | 24.1 | 16.3 |
| O=C(NC(Cc1c[nH]c2ccccc12)C(=O)O)/C(=C/c1ccccc1)NC(=O)c1ccccc1 (configuration not stated) | > 100 | > 100 | > 100 | > 100 | > 100 | > 100 | > 100 | > 100 | > 88.7 | > 100 |
| COc1ccc(/C=C(\C#N)c2nc(-c3cc4ccccc4oc3=O)cs2)cc1 | 42.2 | > 100 | 86 | 30.3 | > 100 | 34.9 | 58.8 | > 100 | 57.5 | 55.9 |
| C=C1C(=O)O[C@H]2[C@@H](O)[C@H](C)CCC/C(C)=C/CC[C@@]3(C)O[C@@H]3C[C@@H]12 | 6.16 | 34.8 | 18.4 | 14.5 | 19.3 | 37.5 | 19.8 | > 100 | 8.28 | 34.9 |
| NC(=O)Nc1n[nH]c(-c2ccccc2)n1 | > 100 | > 100 | > 100 | > 100 | > 100 | > 100 | > 100 | > 100 | > 100 | > 100 |
| CC(C)=CCC/C(C)=C/CCC1(C)C2COC(=O)C21 (configuration not stated) | > 100 | > 100 |  | > 100 | 89 | > 100 | > 100 | 49.2 | > 100 | > 100 |
| O=c1[nH]nc(Cc2ccc([N+](=O)[O-])cc2)[nH]1 | > 100 | > 100 | > 100 | > 100 | > 100 | > 100 | > 100 | > 100 | > 100 | > 100 |
| COC(=O)[C@]12CCC(=O)N1[C@H](C(=O)O)Cc1c2[nH]c2ccccc12 | > 100 | > 100 | > 100 | > 100 | > 100 | > 100 | > 100 | > 100 | > 100 | > 100 |
| NC(Cc1ccccc1)C(=O)O (configuration not stated) | > 100 | > 100 | > 100 | > 100 | > 100 | > 100 | > 100 | > 100 | > 100 | > 100 |
| CCSc1nn(-c2c3ccccc3nc3ccccc23)c(=S)s1 | > 100 | > 100 | > 100 | > 100 | > 100 | > 100 | > 100 | > 100 | > 100 | > 100 |
| Cc1nc2ccccc2n1CCc1nc2ccccc2[nH]1 | > 100 | > 100 | > 100 | > 100 | > 100 | > 100 | > 100 | > 100 | > 100 | > 100 |

Source: PubChem BioAssay (NCI)
